Target: T1, Cbl-b (Homo sapiens, UniProt Q13191)
T1 construct: Cbl-b-HiBit KI Jurkat Cells were purchased from Promega; host or cells: Cbl-b-HiBiT knock-in Jurkat cells
Assay: Cbl-b Degradation Method B (Nano-Glo HiBiT lytic detection)
Type: cell-based
Details: Cbl-b-HiBit KI Jurkat Cells, incubated at least 6-24 hours; for DC50: half maximal degradation, read-out: Cbl-b Degredation Method B IC50; for Dmax: maximum degradation observed, read-out: Cbl-b Degredation Method B Dmax (%)
Summary of the method: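 Cbl-b-HiBiT knock-in Jurkat cells (20,000/well) were treated after ~24 h plating with an 11-point 1:3 series for 6-24 h at 37° C. Remaining Cbl-b measured by Nano-Glo HiBiT lytic luminescence. DC50 and Dmax expressed as % of control.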

T1 sequence (Q13191 whole entry): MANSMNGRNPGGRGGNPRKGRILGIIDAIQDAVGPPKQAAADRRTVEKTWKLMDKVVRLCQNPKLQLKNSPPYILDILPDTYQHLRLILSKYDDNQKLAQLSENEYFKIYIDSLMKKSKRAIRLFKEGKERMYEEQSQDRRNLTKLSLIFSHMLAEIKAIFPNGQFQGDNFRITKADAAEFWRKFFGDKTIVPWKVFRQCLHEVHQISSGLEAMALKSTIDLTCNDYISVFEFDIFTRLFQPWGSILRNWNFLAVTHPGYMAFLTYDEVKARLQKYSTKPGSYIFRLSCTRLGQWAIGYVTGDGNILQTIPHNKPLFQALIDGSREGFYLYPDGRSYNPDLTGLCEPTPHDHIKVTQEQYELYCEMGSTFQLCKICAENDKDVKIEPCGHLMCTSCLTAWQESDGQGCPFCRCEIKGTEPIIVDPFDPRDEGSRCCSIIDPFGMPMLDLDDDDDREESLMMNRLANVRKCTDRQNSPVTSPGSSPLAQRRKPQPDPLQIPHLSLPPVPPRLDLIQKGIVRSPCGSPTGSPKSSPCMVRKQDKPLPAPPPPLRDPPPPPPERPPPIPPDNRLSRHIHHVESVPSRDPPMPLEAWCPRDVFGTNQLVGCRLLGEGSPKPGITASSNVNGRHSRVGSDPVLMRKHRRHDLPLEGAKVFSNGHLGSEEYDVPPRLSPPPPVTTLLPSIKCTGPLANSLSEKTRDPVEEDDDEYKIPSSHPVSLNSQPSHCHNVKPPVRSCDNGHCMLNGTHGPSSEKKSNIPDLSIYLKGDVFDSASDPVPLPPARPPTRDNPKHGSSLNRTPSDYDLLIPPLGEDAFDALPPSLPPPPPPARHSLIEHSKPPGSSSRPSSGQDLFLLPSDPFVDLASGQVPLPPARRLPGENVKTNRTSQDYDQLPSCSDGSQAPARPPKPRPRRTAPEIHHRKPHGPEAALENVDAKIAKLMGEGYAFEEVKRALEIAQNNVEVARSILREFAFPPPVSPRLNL

Row | DC50 [nM] | Dmax [%] | Structure (SMILES)
1 | < 5 | > 70 | Cn1cnnc1CC1(c2cccc(N3Cc4c(cc(CN5CCC[C@H](CN6CCN(C[C@H]7CC[C@@H](OC8CCN(c9ccc%10c(c9F)CN(C9CCC(=O)NC9=O)C%10=O)CC8)CC7)CC6(C)C)C5)cc4C(F)(F)F)C3=O)c2)CCC1 (stereo partly drawn) [Example 270, 3-[4-fluoro-1-oxo-5-(4-{[(1r,4r)-4-[(3,3-dimethyl-4-{[(3S)-1-{[2-(3-{1-[(4-methyl-4H-1,2,4-triazol-3-yl)methyl]cyclobutyl}phenyl)-3-oxo-7-(trifluoromethyl)-2,3-dihydro-1H-isoindol-5-yl]methyl}piperidin-3-yl]methyl}piperazin-1-yl)methyl]cyclohexyl]oxy}piperidin-1-yl)-2,3-dihydro-1H-isoindol-2-yl]piperidine-2,6-dione]
2 | < 5 | > 70 | CC1CN(C[C@H]2CC[C@H](OC3CCN(c4ccc5c(c4)n(C(C)C)c(=O)n5C4CCC(=O)NC4=O)CC3)CC2)CCN1Cc1cc2c(c(C(F)(F)F)c1)CN(c1cccc(C3(Cc4nncn4C)CC(C#N)C3)c1)C2=O (stereo partly shown) [Example 245, (1r**,3r**)-3-(3-{6-[(2-methyl-4-{[(1r*,4r*)-4-({1-[1-(2,6-dioxopiperidin-3-yl)-2-oxo-3-(propan-2-yl)-2,3-dihydro-1H-1,3-benzodiazol-5-yl]piperidin-4-yl}oxy)cyclohexyl]methyl}piperazin-1-yl)methyl]-1-oxo-4-(trifluoromethyl)-2,3-dihydro-1H-isoindol-2-yl}phenyl)-3-[(4-methyl-4H-1,2,4-triazol-3-yl)methyl]cyclobutane-1-carbonitrile]
3 | < 5 | – | CC(C)n1c(=O)n(C2CCC(=O)NC2=O)c2ccc(N3CCC(CN4CCN(C[C@H]5CCCN(Cc6cc7c(c(C(F)(F)F)c6)CN(c6cccc(C8(Cc9nncn9C)CC(C#N)C8)c6)C7=O)C5)C(C)(C)C4)CC3)cc21 (stereo partly drawn) [Example 273, (1r*,3r*)-3-[3-(6-{[(3S)-3-{[4-({1-[1-(2,6-dioxopiperidin-3-yl)-2-oxo-3-(propan-2-yl)-2,3-dihydro-1H-1,3-benzodiazol-5-yl]piperidin-4-yl}methyl)-2,2-dimethylpiperazin-1-yl]methyl}piperidin-1-yl]methyl}-1-oxo-4-(trifluoromethyl)-2,3-dihydro-1H-isoindol-2-yl)phenyl]-3-[(4-methyl-4H-1,2,4-triazol-3-yl)methyl]cyclobutane-1-carbonitrile]
4 | 5 to 50 | 35 to 70 | CC(C)n1c(=O)n(C2CCC(=O)NC2=O)c2cccc(N3CCC(O[C@H]4CC[C@H](CN5CCN(Cc6cc7c(c(C(F)(F)F)c6)CN(c6cccc([C@]8(Cc9nncn9C)C[C@@H](C#N)C8)c6)C7=O)C(C)(C)C5)CC4)CC3)c21 (stereo partly shown) [Example 275, (1r,3r)-3-(3-{6-[(2,2-dimethyl-4-{[(1r,4r)-4-({1-[1-(2,6-dioxopiperidin-3-yl)-2-oxo-3-(propan-2-yl)-2,3-dihydro-1H-1,3-benzodiazol-4-yl]piperidin-4-yl}oxy)cyclohexyl]methyl}piperazin-1-yl)methyl]-1-oxo-4-(trifluoromethyl)-2,3-dihydro-1H-isoindol-2-yl}phenyl)-3-[(4-methyl-4H-1,2,4-triazol-3-yl)methyl]cyclobutane-1-carbonitrile]

The remaining lines, values behind:

Row | Structure (SMILES) | DC50 [nM] | Dmax [%]
5 | Cn1cnnc1CC1(c2cccc(N3Cc4c(cc(CN5CCC6(CC5)CCN(CC5CCN(c7ccc8c(c7)C(=O)N(C7CCC(=O)NC7=O)C8=O)CC5)CC6)cc4C(F)(F)F)C3=O)c2)COC1 (stereo not shown) [Example 45, 2-(2,6-dioxopiperidin-3-yl)-5-{4-[(9-{[2-(3-{3-[(4-methyl-4H-1,2,4-triazol-3-yl)methyl]oxetan-3-yl}phenyl)-3-oxo-7-(trifluoromethyl)-2,3-dihydro-1H-isoindol-5-yl]methyl}-3,9-diazaspiro[5.5]undecan-3-yl)methyl]piperidin-1-yl}-2,3-dihydro-1H-isoindole-1,3-dione] | > 500 | –
6 | Cn1cnnc1C[C@]1(c2cccc(N3Cc4c(cc(CN5CCC[C@H](CN6CCN(C[C@H]7CC[C@H](OC8CCN(c9ccc%10c(c9F)CN(C9CCC(=O)NC9=O)C%10=O)CC8)CC7)CC6)C5)cc4C(F)(F)F)C3=O)c2)C[C@@H](C#N)C1 (stereo partly drawn) [Example 168, (1r,3r)-3-[(4-methyl-4H-1,2,4-triazol-3-yl)methyl]-3-[3-(1-oxo-6-{[(3S)-3-[(4-{[(1r,4r)-4-({1-[2-(2,6-dioxopiperidin-3-yl)-4-fluoro-1-oxo-2,3-dihydro-1H-isoindol-5-yl]piperidin-4-yl}oxy)cyclohexyl]methyl}piperazin-1-yl)methyl]piperidin-1-yl]methyl}-4-(trifluoromethyl)-2,3-dihydro-1H-isoindol-2-yl)phenyl]cyclobutane-1-carbonitrile] | < 5 | 35 to 70
7 | CC(C)n1c(=O)n(C2CCC(=O)NC2=O)c2ccc(N3CCC(CN4CCC5(CC4)CN(c4cc6c(c(C(F)(F)F)c4)CN(c4cccc([C@]7(Cc8nncn8C)C[C@@H](C#N)C7)c4)C6=O)C5)CC3)cc21 (stereo partly shown) [Example 192, (1r,3r)-3-(3-{6-[7-({1-[1-(2,6-dioxopiperidin-3-yl)-2-oxo-3-(propan-2-yl)-2,3-dihydro-1H-1,3-benzodiazol-5-yl]piperidin-4-yl}methyl)-2,7-diazaspiro[3.5]nonan-2-yl]-1-oxo-4-(trifluoromethyl)-2,3-dihydro-1H-isoindol-2-yl}phenyl)-3-[(4-methyl-4H-1,2,4-triazol-3-yl)methyl]cyclobutane-1-carbonitrile] | < 5 | 35 to 70
8 | Cn1cnnc1CC1(c2cccc(N3Cc4c(cc(CN5CCC(CN6CCN(CC7CCN(c8ccc9c(c8)C(=O)N(C8CCC(=O)NC8=O)C9=O)CC7)CC6)CC5)cc4C(F)(F)F)C3=O)c2)COC1 (stereo not shown) [Example 46, 2-(2,6-dioxopiperidin-3-yl)-5-[4-({4-[(1-{[2-(3-{3-[(4-methyl-4H-1,2,4-triazol-3-yl)methyl]oxetan-3-yl}phenyl)-3-oxo-7-(trifluoromethyl)-2,3-dihydro-1H-isoindol-5-yl]methyl}piperidin-4-yl)methyl]piperazin-1-yl}methyl)piperidin-1-yl]-2,3-dihydro-1H-isoindole-1,3-dione] | > 500 | –
9 | Cn1cnnc1CC1(c2cccc(N3Cc4c(cc(CN5CCN(c6ccc7c(c6)CN(C6CCC(=O)NC6=O)C7=O)CC5)cc4C(F)(F)F)C3=O)c2)COC1 (stereo not shown) [Example 41, 3-[5-(4-{[2-(3-{3-[(4-methyl-4H-1,2,4-triazol-3-yl)methyl]oxetan-3-yl}phenyl)-3-oxo-7-(trifluoromethyl)-2,3-dihydro-1H-isoindol-5-yl]methyl}piperazin-1-yl)-1-oxo-2,3-dihydro-1H-isoindol-2-yl]piperidine-2,6-dione] | 5 to 50 | > 70
10 | Cn1cnnc1CC1(c2cccc(-n3cc4c(C(F)(F)F)cc(CN5CCC[C@H](CN6CCC[C@H](CN7CCN(c8ccc9c(c8F)CN(C8CCC(=O)NC8=O)C9=O)CC7)C6)C5)cc4n3)c2)COC1 (stereo partly drawn) [Example 155, 3-[4-fluoro-5-[4-[[(3S)-1-[[(3R)-1-[[2-[3-[3-[(4-methyl-1,2,4-triazol-3-yl)methyl]oxetan-3-yl]phenyl]-4-(trifluoromethyl)indazol-6-yl]methyl]-3-piperidyl]methyl]-3-piperidyl]methyl]piperazin-1-yl]-1-oxo-isoindolin-2-yl]piperidine-2,6-dione] | > 500 | –
